Measured values taken from US7855205B2, “Pyrimidinyl substituted fused-pyrrolyl compounds useful in treating kinase disorders” (Janssen Pharmaceutica NV, priority 2004, dated 2010).
Read-outs that look alike come from different tables or passages of the source.

Experiments:
CDK1:Cyclin-B = biological target: T1, CDK1:Cyclin-B (Homo sapiens, UniProt P06493); assay: CDK1 Screening Assay; format: biochemical; details: 33P-γ-ATP incorporation, 10 μM ATP
T1 construct: purchased New England Biolabs, Beverly, Mass; 6020; host or cells: insect cells
Method: (§1) A kinase reaction mixture was prepared containing 50 mM Tris-HCl pH=8, 10 mM MgCl2, 0.1 mM […], 1 mM DTT, 10 μM ATP, 0.025 μM biotinylated histone-HI peptide substrate and […] per well ^33P-γ-ATP (2000-3000 Ci/mmol). 70 μL of the kinase reaction mixture was dispensed into the well of a streptavidin coated FlashPlate™ (Cat. # SMP103, NEN, Boston, Mass.). Then 1 μL of test compound stock in 100% DMSO was added to the wells resulting in a final concentration of 1% DMSO in the reaction with a 100 μL final reaction volume.
(§2) The CDK1:Cyclin-B protein was then diluted in 50 mM Tris-HCl pH=8.0, 0.1% BSA at a concentration of 1 ng per μL and 30 μL (30 ng enzyme per test well) was added to each well to initiate the reaction. The reaction was incubated for one hour at 30° C. At the end of the 1 h incubation, the reaction was terminated by aspirating the mixture from the plate and washing the wells twice with PBS containing 100 mM EDTA. The histone-H1 biotinylated peptide substrate became immobilized on the Flashplate™ and the incorporation of ^33P-γ-ATP was measured by reading the plate on a scintillation counter. Inhibition of the enzymatic activity of CDK1 was measured by observing a reduced amount of ^33P-γ-ATP incorporated into the immobilized peptide.
The CDK1 used was isolated from insect cells expressing both the human CDK1 catalytic subunit and its positive regulatory subunit cyclin B (New England Biolabs, Beverly, Mass., Cat. #6020).
(§3) • VEGF-R2, HER2 and (Biotin)[…]-Amide • RET kinases • CDK1 (Biotin)[…]-Amide • Aurora-A kinase Biotin-[…]-Amide

VEGF-R2 = biological target: T2, VEGF-R2 (Rattus norvegicus, UniProt O08775); assay: VEGF-R2 Screening Assay; format: biochemical; details: 33P-γ-ATP incorporation, 10 μM ATP
T2 construct: polyhistidine (N)
Method: as §2, with “Then 1 μL of test compound stock in 100% DMSO was added to the wells resulting in a final concentration of 1% DMSO in the reaction with a 100 μL final reaction volume. The CDK1:Cyclin-B” for “The CDK1:Cyclin-B”, “immobilized peptide. The VEGF-R kinase assay was carried out using the CDK kinase assay procedure except that the enzyme was replaced with the VEGF-R2 fusion protein containing a polyhistidine tag at the N-terminus followed by amino acids 786-1343 of the rat VEGF-R2 kinase domain (GenBank Accession #U93306).” for “immobilized peptide.”

Aurora-A = biological target: T3, Aurora-A (Mus musculus, UniProt P97477); assay: Aurora-A Screening Assay; format: biochemical, murine; details: 33P-γ-ATP incorporation, 10 μM ATP
T3 construct: made in house; host or cells: sf9 insect cells
T3 sequence (P97477 1-395): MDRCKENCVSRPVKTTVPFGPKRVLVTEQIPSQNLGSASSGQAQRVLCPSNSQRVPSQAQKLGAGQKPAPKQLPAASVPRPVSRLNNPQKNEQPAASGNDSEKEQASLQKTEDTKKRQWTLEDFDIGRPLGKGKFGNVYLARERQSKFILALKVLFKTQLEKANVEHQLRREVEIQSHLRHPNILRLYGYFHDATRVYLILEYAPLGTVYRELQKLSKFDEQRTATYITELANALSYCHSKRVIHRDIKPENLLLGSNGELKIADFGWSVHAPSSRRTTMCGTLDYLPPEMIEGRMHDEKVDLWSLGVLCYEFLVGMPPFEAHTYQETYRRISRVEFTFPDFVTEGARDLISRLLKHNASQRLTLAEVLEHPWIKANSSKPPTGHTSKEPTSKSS
Method: as §1, §2
The Aurora-A kinase assay was carried out using the CDK kinase assay procedure except that the enzyme was replaced with the full length protein encoding the murine Aurora-A (Accession# GB BC014711) expressed and purified from sf9 insect cells.
as §3

[1] = tested on: HeLa cervical adenocarcinoma; assay: Inhibition of cell proliferation (14C-thymidine incorporation), HeLa; format: cell-based;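 further: HeLa cells in 96-well scintillating plates, compound for 24 h then 24 h more with 14C-thymidine, counting label built into new DNA against DMSO-only control wells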
HCT-116 colon carcinoma = assay: Inhibition of cell proliferation (14C-thymidine incorporation), HCT-116; format: cell-based
Method: (§4) The ability of a test compound to inhibit the proliferation of cell growth was determined by measuring incorporation of ^14C-labelled thymidine into newly synthesized DNA within the cells. This method was used on cell lines derived from carcinomas originating from several tissues such as HeLa cervical adenocarcinoma (American Type Culture Collection (ATCC), Virginia, Cat. #CCL-2), A375 malignant melanoma (ATCC CRL-1619), HCT-116 colon carcinoma (CCL-247). In this way the effect of a compound on cell growth of cells with many different phenotypes can be determined. Cells were trypsinized and counted and 3000-8000 cells were added to each well of a 96-well CytoStar tissue culture treated scintillating microplate (Amersham #RPNQ0160) in complete medium in a volume of 100 μL. Cells were incubated for 24 hours in complete medium at 37° C. in an atmosphere containing 5% CO2.
(§5) Next, 1 μL of test compound in 100% DMSO was added to the wells of the plate. DMSO only was added to control wells. Cells were incubated for 24 more hours in complete medium at 37° C. in an atmosphere containing 5% CO2. Methyl ^14C-thymidine 56 mCi/mmol (NEN #NEC568 or Amersham #CFA532) was diluted in complete medium and 0.2 uCi/well was added to each well of the CytoStar plate in a volume of 20 μl. The plate was incubated for 24 hours at 37° C. plus 5% CO2 in drug plus ^14C-thymidine. The contents of the plate discarded into a ^14C radioactive waste container by inverting the plate and the plate was washed twice with 200 μL PBS.
(§6) 200 μL of PBS is added to each well. The top of the plate was sealed with a transparent plate sealer and a white plate backing sealer (Packard #6005199) was applied to the bottom of the plate. The degree of methyl ^14C-thymidine incorporation was quantified on a Packard Top Count.

A375 malignant melanoma = assay: Inhibition of cell proliferation (14C-thymidine incorporation), A375; format: cell-based, human
Method: as §4, §5, §6

T2 sequence (O08775 786-1343): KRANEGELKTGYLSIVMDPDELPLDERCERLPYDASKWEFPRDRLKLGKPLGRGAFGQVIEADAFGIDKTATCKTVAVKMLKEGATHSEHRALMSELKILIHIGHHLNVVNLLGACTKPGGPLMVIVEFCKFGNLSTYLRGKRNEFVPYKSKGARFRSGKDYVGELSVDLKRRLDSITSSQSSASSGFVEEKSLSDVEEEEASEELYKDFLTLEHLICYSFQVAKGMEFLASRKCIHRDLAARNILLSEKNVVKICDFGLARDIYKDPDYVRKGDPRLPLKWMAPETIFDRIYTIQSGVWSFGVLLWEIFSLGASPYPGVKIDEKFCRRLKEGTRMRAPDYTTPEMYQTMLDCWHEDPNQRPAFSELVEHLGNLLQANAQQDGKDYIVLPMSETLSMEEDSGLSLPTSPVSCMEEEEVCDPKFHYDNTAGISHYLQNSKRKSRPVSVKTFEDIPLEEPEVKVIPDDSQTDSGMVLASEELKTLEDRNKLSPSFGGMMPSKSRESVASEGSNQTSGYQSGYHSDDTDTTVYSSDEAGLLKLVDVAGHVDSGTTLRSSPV
T1 sequence (P06493 whole entry): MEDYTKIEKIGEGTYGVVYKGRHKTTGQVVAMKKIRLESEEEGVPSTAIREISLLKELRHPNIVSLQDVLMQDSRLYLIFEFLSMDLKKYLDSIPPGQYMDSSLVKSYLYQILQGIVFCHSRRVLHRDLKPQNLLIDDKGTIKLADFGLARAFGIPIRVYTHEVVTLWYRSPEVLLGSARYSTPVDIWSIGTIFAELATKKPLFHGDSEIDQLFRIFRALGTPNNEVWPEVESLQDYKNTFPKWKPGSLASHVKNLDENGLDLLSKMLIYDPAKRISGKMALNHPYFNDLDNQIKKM
T1 sequence (P14635 whole entry partner): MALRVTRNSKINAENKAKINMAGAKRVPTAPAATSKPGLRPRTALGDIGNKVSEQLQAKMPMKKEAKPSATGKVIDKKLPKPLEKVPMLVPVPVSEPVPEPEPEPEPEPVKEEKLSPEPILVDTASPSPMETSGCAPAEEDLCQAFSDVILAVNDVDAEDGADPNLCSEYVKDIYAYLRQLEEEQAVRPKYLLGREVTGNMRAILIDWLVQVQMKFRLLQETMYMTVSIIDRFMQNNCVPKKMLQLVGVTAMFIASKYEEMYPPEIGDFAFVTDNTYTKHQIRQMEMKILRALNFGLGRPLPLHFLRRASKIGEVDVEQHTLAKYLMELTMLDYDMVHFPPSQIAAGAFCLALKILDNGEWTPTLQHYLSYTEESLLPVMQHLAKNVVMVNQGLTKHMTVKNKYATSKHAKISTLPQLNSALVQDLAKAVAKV

Compound	IC50 (CDK1:Cyclin-B)	IC50 (VEGF-R2)	IC50 (Aurora-A)	IC50 ([1]; Homo sapiens)	IC50 (HCT-116 colon carcinoma; Homo sapiens, HCT-116, HCT116)	IC50 (A375 malignant melanoma; Homo sapiens, A-375)	IC50 [1]	IC50 (HCT-116 colon carcinoma; HCT116)	IC50 (A375 malignant melanoma)
CC1CCC(Nc2nccc(-c3c[nH]c4ncccc34)n2)CC1 (mixture of isomers) [Cpd 17, (4-Methyl-cyclohexyl)-[4-(1H-pyrrolo[2,3-b]pyridin-3-yl)-pyrimidin-2-yl]-amine]	0.012 µM	3.81 µM	0.312 µM	0.0243 µM	0.0208 µM	0.014 µM			
CN(C)CC(O)Cn1cc(-c2ccnc(N[C@H]3CC[C@H](O)CC3)n2)c2cccnc21 (relative stereo) [Cpd 76, trans-4-{4-[1-(3-Dimethylamino-2-hydroxy-propyl)-1H-pyrrolo[2,3-b]pyridin-3-yl]-pyrimidin-2-ylamino}-cyclohexanol]	1.35 µM	10 µM		0.21 µM	0.157 µM	0.298 µM			
Cc1ccccc1Nc1nccc(-c2c[nH]c3ncccc23)n1 [Cpd 8, [4-(1H-Pyrrolo[2,3-b]pyridin-3-yl)-pyrimidin-2-yl]-o-tolyl-amine]	0.0037 µM	0.57 µM	0.301 µM		0.024 µM	0.024 µM			
Cc1cccc(Nc2nccc(-c3c[nH]c4ncccc34)n2)c1 [Cpd 9, [4-(1H-Pyrrolo[2,3-b]pyridin-3-yl)-pyrimidin-2-yl]-m-tolyl-amine]	0.057 µM	0.0967 µM	0.136 µM		0.25 µM	0.34 µM			
c1cnc2[nH]cc(-c3ccnc(NC4CCCCC4)n3)c2c1 [Cpd 13, Cyclohexyl-[4-(1H-pyrrolo[2,3-b]pyridin-3-yl)-pyrimidin-2-yl]-amine]	0.014 µM	2.08 µM	0.263 µM	0.031 µM	0.032 µM	0.033 µM			
Cc1cc(CCO)ccc1Nc1nccc(-c2c[nH]c3ncccc23)n1 [Cpd 44]		0.493 µM	0.142 µM	0.011 µM	0.00398 µM	0.00845 µM			
Cn1cc(-c2ccnc(NC3CCCCC3)n2)c2cccnc21 [Cpd 66, Cyclohexyl-[4-(1-methyl-1H-pyrrolo[2,3-b]pyridin-3-yl)pyrimidin-2-yl]-amine]				52.2 µM	≥ 10 µM	≥ 10 µM			
OCCn1cc(-c2ccnc(NC3CCCCC3)n2)c2cccnc21 [Cpd 70, Cyclohexyl-{4-[1-(2-hydroxyethyl)-1H-pyrrolo[2,3-b]pyridin-3-yl]-pyrimidin-2-yl}-amine]	3.21 µM			6.29 µM	3.97 µM	5.93 µM			
CNCCn1cc(-c2ccnc(N[C@H]3CC[C@H](O)CC3)n2)c2cccnc21 [Cpd 73, trans-4-{4-[1-(2-Methylaminoethyl)-1H-pyrrolo[2,3-b]pyridin-3-yl]-pyrimidin-2-ylamino}-cyclohexanol]	7.02 µM			4.16 µM	3.51 µM	3.95 µM			
CN(C)CCn1cc(-c2ccnc(N[C@H]3CC[C@H](O)CC3)n2)c2cccnc21 [Cpd 74, trans-4-{4-[1-(2-Dimethylaminoethyl)-1H-pyrrolo[2,3-b]pyridin-3-yl]-pyrimidin-2-ylamino}-cyclohexanol]	3.89 µM			4.53 µM	3.76 µM	3.02 µM			

Continued by falling IC50 (CDK1:Cyclin-B), values first:

IC50 (CDK1:Cyclin-B)	IC50 (VEGF-R2)	IC50 (Aurora-A)	IC50 ([1]; Homo sapiens)	IC50 (HCT-116 colon carcinoma; Homo sapiens, HCT-116, HCT116)	IC50 (A375 malignant melanoma; Homo sapiens, A-375)	IC50 [1]	IC50 (HCT-116 colon carcinoma; HCT116)	IC50 (A375 malignant melanoma)	Compound
10.4 µM			8.9 µM	13.4 µM	7.69 µM				CN(C)CCn1cc(-c2ccnc(NC3CCCCC3)n2)c2cccnc21 [Cpd 69, Cyclohexyl-{4-[1-(2-dimethylaminoethyl)-1H-pyrrolo[2,3-b]pyridin-3-yl]-pyrimidin-2-yl}-amine]
2.31 µM	10 µM		2.58 µM	3.87 µM	4.54 µM				CNCCOc1ccc(Nc2nccc(-c3c[nH]c4ncccc34)n2)c(C)c1 [Cpd 80, [4-(2-Methylamino-ethoxy)-2-methyl-phenyl]-[4-(1H-pyrrolo[2,3-b]pyridin-3-yl)-pyrimidin-2-yl]-amine]
2.02 µM		10 µM				1.99 µM	1.58 µM	2.81 µM	O=S(=O)(c1ccccc1)n1cc(-c2ccnc(N[C@H]3CC[C@H](O)CC3)n2)c2cccnc21 [Cpd 75, trans-4-[4-(1-Benzenesulfonyl-1H-pyrrolo[2,3-b]pyridin-3-yl)-pyrimidin-2-ylamino]-cyclohexanol]
1.87 µM			13.2 µM	4.54 µM	2.81 µM				Cc1cc(OCCN(C)C)ccc1Nc1nccc(-c2c[nH]c3ncccc23)n1 [Cpd 81, [4-(2-Dimethylamino-ethoxy)-2-methyl-phenyl]-[4-(1H-pyrrolo[2,3-b]pyridin-3-yl)-pyrimidin-2-yl]-amine]
1.65 µM			9.51 µM	4.46 µM	7.15 µM				Cn1cc(-c2ccnc(N[C@H]3CC[C@H](O)CC3)n2)c2cccnc21 [Cpd 71, trans-4-[4-(1-Methyl-1H-pyrrolo[2,3-b]pyridin-3-yl)-pyrimidin-2-ylamino]-cyclohexanol]
0.0223 µM		1 µM	0.467 µM	0.277 µM	0.448 µM				Clc1ccc(Nc2nccc(-c3c[nH]c4ncccc34)n2)c(Cl)c1 [Cpd 36, (2,4-Dichlorophenyl)-[4-(1H-pyrrolo[2,3-b]pyridin-3-yl)-pyrimidin-2-yl]-amine]
0.0066 µM	2.78 µM	0.262 µM	0.00292 µM	0.00297 µM	0.00242 µM				NC1CCC(Nc2nccc(-c3c[nH]c4ncccc34)n2)CC1 (mixture of isomers) [Cpd 43, (4-Aminocyclohexyl)-[4-(1H-pyrrolo[2,3-b]pyridin-3-yl)-pyrimidin-2-yl]-amine]
